Laboratory results as given in US9250232B2, “Fluorescent probe” (THE UNIVERSITY OF TOKYO, priority 2012, dated 2016).
Blank lines part the entries; values can stand above or below the molecule they belong to.

Legend:
[1] = Optical characteristics (absorption and fluorescence maxima, quantum yield) in 0.1 M phosphate buffer with 1% DMSO; format: physicochemical; details: for λmax,fl (nm) / Φfl (fluorescence quantum yield): 0.1 M phosphate buffer (pH 9); for λmax,abs (nm) pH 9: pH 9, 0.1 M phosphate buffer; for Φfl (fluorescence quantum yield): standard 2-Me TM (0.42)
Method: (§1) The measurement was performed in a 0.1 M phosphate buffer (pH 9) containing 1% dimethyl sulfoxide (DMSO). pKa was obtained from the absorbance meaured in a phosphate buffer (pH 9) by single-phase or two-phase curve fitting.

[2] = 2-Me TokyoMagenta in 0.1 M phosphate buffer (pH 9); compound of WO2012/099218; cited from earlier work
[3] = pKa from absorbance in phosphate buffer by single-phase or two-phase curve fitting; details: single value given
Method: as §1

[4] = Optical characteristics of diCl-2-COOH TM-monoβGal in 0.1 M phosphate buffer; format: physicochemical
Method: The quantum yield was calculated by using the quantum yield (0.85) of fluorescein in 0.1M aqueous sodium hydroxide as the standard.

[5] = Estimate of open-ring ratio by comparison with the absorption spectrum of TM-βGal; format: physicochemical; details: pH of physiological conditions; 10 μM in 0.1 M sodium phosphate buffer, 1.0% DMSO; versus TM-βGal
Method: In order to estimate the open-ring ratio of diCl-2-COOH TM-monoβGal, comparison with the absorption spectrum of TM-βGal was performed. […] The measurement was performed by using 10 μM diCl-2-COOH TM-monoβGal in a 0.1 M sodium phosphate buffer of various pH values containing 1.0% DMSO. The excitation wavelength was 450 nm for TMβGal (compound described in International Patent Publication WO2012/099218), or 460 nm for diCl-2-COOH TM-monoβGal.

HEK293 cells = test: Imaging of β-galactosidase in live HEK293 cells (lacZ+ / lacZ−), intracellular uptake; format: cell-based; details: 10 μM, 37° C., 30 minutes, DMEM with 0.1% DMSO, confocal microscope
Method: For the HEK293 cells in which the lacZ gene encoding β-galactosidase was stably expressed (lacZ+), and the HEK293 cells into which the lacZ gene was not introduced (lacZ−) as a control, β-galactosidase in the cells was measured by using diCl-2-COOH TM-monoβGal or diCl-2-COOH TM-diβGal. The HEK293 cells (lacZ−) were incubated at 37° C. for 30 minutes in the Dulbecco's Modified Eagle's medium (DMEM) containing 0.1% DMSO together with 10 μM diCl-2-COOH TM-monoβGal or diCl-2-COOH TM-diβGal. […] The results are shown in FIG. 19 (diCl-2-COOH TM-monoβGal) and FIG. 20 (diCl-2COOHTM-diβGal).

Method for physchem: as §1

Structure (SMILES): Cc1ccccc1C1=C2C=CC(=O)C=C2[Si](C)(C)c2cc(O)ccc21 [2-Me TM, 2-Me TokyoMagenta]
λmax,fl (nm) [1]: 598 nm
λmax,abs (nm) pH 3 ([1]; pH 3, 0.1 M phosphate buffer): 472 nm
λmax,abs (nm) pH 9 [1]: 582 nm
Φfl (quantum yield used as the standard) [2]: 0.42
pKa [3]: 6.8

λmax,fl (nm) [1]: 607 nm
Φfl (fluorescence quantum yield) [1]: 0.48
λmax,abs (nm) pH 9 [1]: 591 nm
Structure (SMILES): C[Si]1(C)C2=C(Cl)C(=O)C=CC2=C(c2ccccc2C(=O)O)c2ccc(O)c(Cl)c21 [2-COOH DCTM, 4′,5′-Dichloro-2-COOH TokyoMagenta]

Structure (SMILES): C[Si]1(C)C2=CC(=O)C=CC2=C(c2ccccc2C(=O)O)c2ccc(O)cc21 [2-COOH TM]
λmax,fl (nm) [1]: 598 nm
Φfl (fluorescence quantum yield) [1]: 0.38
λmax,abs (nm) pH 9 [1]: 582 nm
pKa (physchem; pKa (first of two printed values)): 8.3
pKa (physchem; pKa (second of two printed values)): 7.6

Absorption λmax [nm] [4]: 460 nm
Fluorescence λmax [nm] [4]: 555 nm
Extinction Coefficient ε [M^−1cm^−1] ([4]; pH 7.4): 1,200 (pH 7.4) M^−1cm^−1
Quantum yield Φfl ([4]; pH 7.4, standard fluorescein (0.85)): 0.09 (pH 7.4)
Part having the ring-closed structure, which does not show absorption [5]: more than 95%
Structure (SMILES): C[Si]1(C)C2=C(Cl)C(=O)C=CC2=C(c2ccccc2C(=O)O)c2ccc(O[C@@H]3O[C@H](CO)[C@H](O)[C@H](O)[C@H]3O)c(Cl)c21 [diCl-2-COOH TM-monoβGal, 4′,5′-Dichloro-2-COOH TokyoMagenta mono-β-D-galactopyranoside]
Intracellular uptaking amount compared with diCl-2-COOH TM-diβGal (HEK293 cells): larger
